# Measured values: patent US12264139B2, “Aryl sulfonamides as BLT1 antagonists” (Merck Sharp & Dohme LLC, priority 2015, dated 2025)
# Molecular target: T1, human BLT1 receptor (Homo sapiens, UniProt Q15722)
# T1 construct: expressed in transfected cells; host or cells: HEK293
# Experiment: BLT-1 cAMP Assay
# Format: cell-based
# Details: HEK293 cells recombinantly expressing human BLT1; antagonist activity vs forskolin 4 μM and LTB4 2 nM; cAMP (CisBio kit)
# Method: The ability of compounds to antagonize the human BLT1 receptor was determined using a kit to measure changes in intracellular cyclic AMP levels (cAMP dynamic assay kit, Cisbio Cat. No. 62AM4PEC). […] The cell suspension was centrifuged at 200×g for 10 min and then resuspended in fresh assay medium to a density of 2.5×10^5 cells/mL. […] All subsequent liquid additions were performed using a BIORAPTR (FRD; Beckman Coulter). Next, 5 μL of cell suspension was added and incubated for 20 min. at 37° C. and 5% CO2 in a humidified plastic tray.
# The levels of cAMP were detected using the CisBio kit following the manufacturer's instructions: cAMP-d2 vial was reconstituted with distilled water and then diluted accordingly with conjugate & lysis buffer. 5 µL of cAMP-d2 working solution was added to all of the wells of the assay plate. cAMP-Cryptate vial was reconstituted with distilled water and then diluted accordingly with conjugate & lysis buffer. 5 µL of cAMP-Cryptate working solution were added to the assay plate. The assay plate was shaken for 3 minutes and incubated at room temperature for 45 minutes, then read on Perkin Elmer Envision. cAMP standard curve and fit data were plotted using a 4 parameter dose response curve fitting algorithm to fit curve. […] After normalization to treated and untreated controls, the percent effect of signal at each compound concentration was calculated. The plot of percent effect versus the log of compound concentration was fit with a 4-parameter concentration response equation to calculate EC50 values.
# T1 sequence (Q15722 whole entry): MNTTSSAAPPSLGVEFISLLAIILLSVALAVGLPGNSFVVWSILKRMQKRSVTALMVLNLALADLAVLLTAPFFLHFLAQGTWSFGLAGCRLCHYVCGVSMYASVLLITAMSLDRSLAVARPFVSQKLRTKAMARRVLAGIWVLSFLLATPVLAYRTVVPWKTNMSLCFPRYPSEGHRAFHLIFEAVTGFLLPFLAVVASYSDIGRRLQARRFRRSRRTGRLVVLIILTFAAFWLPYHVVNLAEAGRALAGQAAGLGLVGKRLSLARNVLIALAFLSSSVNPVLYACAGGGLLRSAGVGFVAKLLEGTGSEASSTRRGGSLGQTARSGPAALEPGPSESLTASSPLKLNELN
row,Compound,EC50 [nM]
1,"Cn1nc(-c2ccccc2)cc1C[C@H]1COc2cc(-c3ccccc3NS(=O)(=O)C(F)(F)F)ccc2[C@@H]1O (racemic) [Example 35, 1,1,1-Trifluoro-N-(2-((rac-trans)-4-hydroxy-3-((1-methyl-3-phenyl-1H-pyrazol-5-yl)methyl)chroman-7-yl)phenyl)methanesulfonamide]",824
2,"O=S(=O)(Nc1ccccc1-c1ccc2c(c1)OC[C@@H](Cc1ccc(-c3ccccc3)cn1)[C@@H]2O)C(F)(F)F (racemic) [Example 38, 1,1,1-Trifluoro-N-(2-{(rac-trans)-4-hydroxy-3-((5-phenylpyridin-2-yl)methyl)chroman-7-yl)phenyl)methanesulfonamide]",4
3,"O=S(=O)(Nc1ccccc1-c1ccc2c(c1)OC[C@@H](Cc1cnc(-c3ccccc3)s1)[C@@H]2O)C(F)(F)F (racemic) [Example 41, 1,1,1-Trifluoro-N-(2-((rac-trans)-4-hydroxy-3-((2-phenylthiazol-5-yl)methyl)chroman-7-yl)phenyl)methanesulfonamide]",225
4,"O=S(=O)(Nc1nccnc1-c1ccc2c(c1)OCC(Cc1ccccn1)C2O)C(F)(F)F (racemic) [Example 74, 1,1,1-Trifluoro-N-(3-((3,4-rac-trans)-4-hydroxy-3-(pyridin-2-ylmethyl)chroman-7-yl)pyrazin-2-yl)methanesulfonamide]",4050
5,"O=S(=O)(Nc1ccccc1-c1ccc2c(c1)OC[C@@H](Cc1nnc(-c3ccc(F)cc3)o1)[C@@H]2O)C(F)(F)F (relative stereo) [Example 44, 1,1,1-Trifluoro-N-(2-((3,4-trans)-3-((5-(4-fluorophenyl)-1,3,4-oxadiazol-2-yl)methyl)-4-hydroxychroman-7-yl)phenyl)methanesulfonamide]",1550
6,"CC(C)(C)c1nc(C[C@@H]2COc3cc(-c4ccccc4NS(=O)(=O)C(F)(F)F)ccc3[C@H]2O)cs1 (relative stereo) [Example 45, N-(2-((3,4-trans)-3-((2-(tert-butyl)thiazol-4-yl)methyl)-4-hydroxychroman-7-yl)phenyl)-1,1,1-trifluoromethanesulfonamide]",1430
7,"O=S(=O)(Nc1ccccc1-c1ccc2c(c1)OC[C@@H](Cc1ccncc1)[C@@H]2O)C(F)(F)F (single isomer, unassigned) [Example 25, 1,1,1-trifluoro-N-{2-[(3R,4S or 3S,4R)-4-hydroxy-3-(pyridin-4-ylmethyl)-3,4-dihydro-2H-chromen-7-yl]phenyl}methanesulfonamide]",412
8,"O=S(=O)(Nc1ccccc1-c1ccc2c(c1)OC[C@H](Cc1ccncc1)[C@H]2O)C(F)(F)F (single isomer, unassigned) [Example 26, 1,1,1-trifluoro-N-{2-[(3S,4R or 3R,4S)-4-hydroxy-3-(pyridin-4-ylmethyl)-3,4-dihydro-2H-chromen-7-yl]phenyl}methanesulfonamide]",121
9,"Cn1nc(-c2ccccc2)cc1C[C@H]1COc2cc(-c3ccccc3NS(=O)(=O)C(F)(F)F)ccc2[C@@H]1O (single isomer, unassigned) [Example 36, 1,1,1-Trifluoro-N-(2-((3S,4R or 3R,4S)-4-hydroxy-3-((1-methyl-3-phenyl-1H-pyrazol-5-yl)methyl)chroman-7-yl)phenyl)methanesulfonamide]",737
10,"Cn1nc(-c2ccccc2)cc1C[C@@H]1COc2cc(-c3ccccc3NS(=O)(=O)C(F)(F)F)ccc2[C@H]1O (single isomer, unassigned) [Example 37, 1,1,1-Trifluoro-N-(2-((3R,4S or 3S,4R)-4-hydroxy-3-((1-methyl-3-phenyl-1H-pyrazol-5-yl)methyl)chroman-7-yl)phenyl)methanesulfonamide]",754
11,"O=S(=O)(Nc1ccccc1-c1ccc2c(c1)OC[C@H](Cc1ccc(-c3ccccc3)cn1)[C@H]2O)C(F)(F)F (single isomer, unassigned) [Example 39, (2-((3S,4R or 3R,4S)-4-hydroxy-3-((5-phenylpyridin-2-yl)methyl)chroman-7-yl)phenyl)((trifluoromethyl)sulfonyl)amide]",1
